What was measured:
[1] = target: T1, limbic D2 (dopamine) receptor (Rattus norvegicus, UniProt P61169); assay: D2 receptor affinity, inhibition of ^3 H-spiroperidol (^3 H-spirohaloperidol) binding to limbic brain tissue
T1 construct: from tissue; rat inferred

[2] = target: T2, 5-HT1A serotonin receptor (Rattus norvegicus, UniProt P19327); assay: 5-HT1A receptor binding, displacement of ^3 H-8-OH DPAT
T2 construct: 44, 1685-1696 (1985); from tissue
T2 sequence (P19327 1-422): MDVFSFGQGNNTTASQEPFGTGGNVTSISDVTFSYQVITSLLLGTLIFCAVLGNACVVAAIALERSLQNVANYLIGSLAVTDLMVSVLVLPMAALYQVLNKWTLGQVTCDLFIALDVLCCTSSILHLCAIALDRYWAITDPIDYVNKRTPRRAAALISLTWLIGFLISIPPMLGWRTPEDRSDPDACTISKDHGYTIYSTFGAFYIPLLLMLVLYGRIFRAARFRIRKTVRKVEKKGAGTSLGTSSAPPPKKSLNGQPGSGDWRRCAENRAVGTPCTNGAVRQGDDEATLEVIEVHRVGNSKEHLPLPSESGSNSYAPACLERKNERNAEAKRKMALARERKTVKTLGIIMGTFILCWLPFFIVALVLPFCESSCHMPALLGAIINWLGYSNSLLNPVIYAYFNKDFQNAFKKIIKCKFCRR
Text: The serotoninergic properties of the compounds of this invention were established by the procedure of Hall et al., J. Neurochem.

[3] = Barone et al., 1986; cited from earlier work
[4] = system: 5-HT2 receptor; assay: 5-HT2 inhibition of ^3 H-spiroperidol binding (rat brain cortex homogenate)
Protocol: 5-HT2 inhibition of ^3 H-spiroperidol is determined in an analogous manner, employing rat brain cortex homogenate as the receptor tissue, following a modification of Fields et al., ibid; Yamamura et al., ibid; and Creese et al., Eu. J. Pharmacol. 49, 20 (1978).

T1 sequence (P61169 whole entry): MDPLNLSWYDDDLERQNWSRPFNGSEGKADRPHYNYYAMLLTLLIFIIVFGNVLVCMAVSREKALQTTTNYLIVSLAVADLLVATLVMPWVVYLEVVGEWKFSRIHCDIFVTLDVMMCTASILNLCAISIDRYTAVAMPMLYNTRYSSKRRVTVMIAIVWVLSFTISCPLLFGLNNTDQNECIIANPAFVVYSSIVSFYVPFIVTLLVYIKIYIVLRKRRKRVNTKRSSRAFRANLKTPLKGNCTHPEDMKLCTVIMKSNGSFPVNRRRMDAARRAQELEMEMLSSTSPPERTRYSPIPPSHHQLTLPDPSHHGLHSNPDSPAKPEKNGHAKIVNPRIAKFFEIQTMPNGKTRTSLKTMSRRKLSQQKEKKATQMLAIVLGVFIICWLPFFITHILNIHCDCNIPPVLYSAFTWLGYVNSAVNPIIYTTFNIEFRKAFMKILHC

Row | Structure (SMILES) | inhibition at 1 µM [1] [%] | inhibition at 1 µM ([2]; ^3 H-8-OH DPAT) [%] | further results
1 | O=C(OCCCN1CCN(c2cccc(Cl)c2)CC1)C12CC3CC(CC(C3)C1)C2 [Example 1, Tricyclo[3.3.1.1^3,7]decane-1-carboxylic acid 3-[4-(3-chlorophenyl)-1-piperazinyl]propyl ester] | 67 | 80 | –
2 | COc1ccccc1N1CCN(CCCOC(=O)C23CC4CC(CC(C4)C2)C3)CC1 [Example 3, Tricyclo[3.3.1.1^3,7]decane-1-carboxylic acid 3-[4-(2-methoxyphenyl)-1-piperazinyl]propyl ester] | 90 | 100 | –
3 | N#Cc1ccccc1N1CCN(CCOC(=O)C23CC4CC(CC(C4)C2)C3)CC1 [Example 10, Tricyclo[3.3.1.1^3,7]decane-1-carboxylic acid [2-[4-(2-cyanophenyl)-1-piperazinyl]ethyl]ester] | 90 | – | –
4 | Cc1nc2sccn2c(=O)c1CCN1CCC(=C(c2ccc(F)cc2)c2ccc(F)cc2)CC1 [Ritanserin] | – | – | clinical efficacy as anxiolytic-antidepressant agents [3]: demonstrated clinical efficacy
5 | O=C(OCCCN1CCN(c2ncccn2)CC1)C12CC3CC(CC(C3)C1)C2 [Example 7, Tricyclo[3.3.1.1^3,7]decane-1-carboxylic acid 3-[4-(2-pyrimidinyl)-1-piperazinyl]propyl ester] | 33 | 69 | –
6 | O=C(OCCN1CCC(=C(c2ccc(F)cc2)c2ccc(F)cc2)CC1)C12CC3CC(CC(C3)C1)C2 [Example 11, Tricyclo[3.3.1.1^3,7]decane-1-carboxylic acid 2-[4-[bis(4-fluorophenyl)methylene]-1-piperidinyl]ethyl ester] | 100 | 95 | 5HT2 Receptor Binding % Inhibition at 1 μM [4]: 98%
7 | CC12CC3CC(C1)CC(CC(=O)OCCN1CCN(c4ncccn4)CC1)(C3)C2 [Example 4, 3-Methyltricyclo[3.3.1.1^3,7]decane-1-acetic acid 2-[4-(2-pyrimidinyl)-1-piperazinyl]ethyl ester] | 39 | 72 | –
8 | CC12CC3CC(C1)CC(CC(=O)OCCN1CCC(=C(c4ccc(F)cc4)c4ccc(F)cc4)CC1)(C3)C2 [Example 12, Tricyclo[3.3.1.1^3,7]decane-3-methyl-1-acetic acid 2-[4-[bis(4-fluorophenyl)methylene]-1-piperidinyl]ethyl ester] | 36 | – | 5HT2 Receptor Binding % Inhibition at 1 μM [4]: 63%
9 | COc1ccccc1N1CCN(CCOC(=O)c2cccc3c2Cc2ccccc2-3)CC1 [Example 5, 9H-Fluorene-1-carboxylic acid 2-[4-(2-methoxyphenyl)-1-piperazinyl]ethyl ester] | – | 100 | –
10 | O=C(OCCN1CCN(c2ncccn2)CC1)C12CC3CC(CC(C3)C1)C2 [Example 2, Tricyclo[3.3.1.1^3,7]decane-1-carboxylic acid 2-[4-(2-pyrimidinyl)-1-piperazinyl]ethyl ester] | 26 | – | Ki ([2]; ^3 H-8-OH DPAT, Ki calculated from IC50 values): 8.5 nM
11 | O=C(OCCN1CCN(c2cccc(Cl)c2)CC1)c1cccc2c1Cc1ccccc1-2 [Example 8, 9H-Fluorene-1-carboxylic acid 2-[4-(3-chlorophenyl)-1-piperazinyl]ethyl ester] | – | 53 | –
12 | O=C1CC2(CCCC2)CC(=O)N1CCCCN1CCN(c2ncccn2)CC1 [Buspirone, reference compound] | – | – | inhibition at 0.001 µM ([2]; read-out: percent inhibition (5-HT1A, ^3 H-8-OH DPAT)): 97%

From US4797489A, “Adamantyl- and fluorenyl-arylpiperazines and -arylpiperidines” (American Home Products Corp., priority 1987, dated 1989)
